This assay concerns 857933-349-R-J2-PDC complex spheroids, viability. Nature of the assay: Anticancer human tumor 857933-349-R-J2-PDC patient-derived colon adenocarcinoma cell line growth inhibition [GQUAD]. Conditions: for viability, T/C: stronger effect = lower value; for IC50: curve of compound. The text has this: DNA G-quadruplex Stabilizer Agents in Combinations in Complex Spheroids
A high-throughput screen of multi-cell type tumor spheroids was designed to identify active combinations of DNA G-quadruplex stabilizer agents and targeted small molecules. Complex spheroids include a stromal component modeled by human endothelial cells (HUVEC) and fibroblasts modeled by human mesenchymal stem cells (MSCs). The concentration ranges selected for each drug and investigational agent were based upon clinically achievable concentrations if the clinical Cmax of the agent was known.
Compounds. The drugs and investigational agents: pidnarulex (CX-5461; NSC782164), APTO-253 (NSC789042), BRACO-19 (NSC847499), peposertib (NSC802822), ceralasertib (NSC780249), elimusertib (NSC800525), camonsertib (NSC841442), AZD-1390 (NSC803789), olaparib (NSC753686), talazoparib (NSC767125), ART-558 (NSC835418), sotorasib (NSC818433), MRTX-1133 (NSC836407), SN-38 (NSC673596), topotecan (NSC609699), etoposide (NSC141540), doxorubicin (NSC123127), gemcitabine (NSC613327), 5-fluorouracil (NSC19893), paclitaxel (NSC125973), vemurafenib (NSC761431), panobinostat (NSC761190), R-306465 (JNJ-16241199; NSC773264), adavosertib (NSC754352), TP-3654 (NSC805149), carboplatin (NSC241240), KSQ-4279 (NSC840948), and staurosporine (NSC755774) were obtained from the National Cancer Institute (NCI) Developmental Therapeutics Program Chemical Repository (34). The FDA-approved anticancer drug set is available from the NCI Developmental Therapeutics Program. […] The stock solutions were prepared in dimethyl sulfoxide (DMSO, Sigma-Aldrich, St. Louis, MO, cat. D2650) at 800-fold the tested concentration and stored at -70 degrees C prior to their use. All drugs and investigational agents were tested over a range starting from a high concentration at or near the clinical Cmax and decreasing in half-log increments. If the clinical Cmax for an agent had not been determined, the highest concentration tested was 10 microM.
2.3 Cell Culture. All cells were maintained in an incubator at 37 degrees C and 5% CO2 with 95% humidity. The PDC lines were cultured according to standard operating procedures established by the NCI PDMR. All PDCs were thawed and cultured in Matrigel-coated flasks prepared with a working solution of 1X Ham's F-12 nutrient mix, without supplementation (Invitrogen, cat. 11765054), 100 U/mL penicillin-streptomycin (Invitrogen, cat. 15140122), and 2.5% Matrigel (Corning Inc., cat. 354248) for the first three passages. The 857933-349-R-J2-PDC line was cultured in 6C/Colon 1B media, which includes advanced DMEM/F-12 (Thermo Fisher Scientific, cat. 12634028), 10 mM HEPES (Thermo Fisher Scientific, cat. 15630080), 1X GlutaMAX supplement (Thermo Fisher Scientific, cat. 35050061), 0.1 mg/mL primocin (InvivoGen, cat. ant-pm-2), 10% defined fetal bovine serum, heat inactivated (HyClone Laboratories Inc., cat. SH30070.03HI), 50% L-WRN conditioned media (ATCC, cat. CRL-3276), 1.25 mM N-Acetyl-L-cysteine (Sigma-Aldrich, cat. A9165), 10 mM nicotinamide (Sigma-Aldrich, cat. N0636), 1X B-27 supplement (Thermo Fisher Scientific, cat. 17504044), 1X N-2 supplement (Thermo Fisher Scientific, cat. 17502048), 10 microM Y-27632 dihydrochloride (Tocris Bioscience, cat. 1254), and 50 ng/mL human EGF recombinant protein (Thermo Fisher Scientific, cat. PHG0311). The 485176-168-R4-J1-PDC line was cultured in Panc media, which includes all 6C/Colon 1B media components plus 100 ng/mL human FGF-10 (Thermo Fisher Scientific, cat. 100-26), 500 nM SB-431542 (Selleckchem, cat. S1067), and gastrin (Tocris, cat. 3006).
[…]

Values joined by “and” are separate entries in the source; they are usually repeats but may differ in a detail not shown here. Equal values may be shown once. Bounds are passed on as bounds.
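Further: spheroids exposed to compounds for one week before readout.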
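Wherever viability, T/C is given: percent viability relative to vehicle DMSO wells taken as 100%.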

For `CCc1c2c(nc3ccc(O)cc13)-c1cc3c(c(=O)n1C2)COC(=O)[C@]3(O)CC`, the IC50 is 5.62 nM and 16 nM and 4.84 nM. Further, under “compound 0.000999 µM”, the viability, T/C is 85.5% and 93.5% and 77.5%. In addition, under “compound 0.00316 µM”, the viability, T/C is 48.9% and 84.5% and 50.1%. Further, the viability, T/C (compound 0.00999 µM) was 50% and 57.4% and 48.4%. Besides, the viability, T/C (compound 0.0316 µM) is 28% and 35.3% and 21.5%. In addition, the viability, T/C (compound 0.0999 µM) was 15.3% and 20.7% and 13%. The viability, T/C (compound 0.316 µM) was 11.9% and 6.62% and 10.2%.
Regarding `CC1COCCN1c1cc(C2(S(C)(=N)=O)CC2)nc(-c2ccnc3[nH]ccc23)n1` (stereo unspecified), the IC50 was 7380 nM and > 10000 nM and 2570 nM. For the same compound, the viability, T/C (compound 0.0316 µM) was 107% and 106% and 99%. For the same compound, the viability, T/C (compound 0.1 µM) was 96.8% and 99.1% and 94.2%. Further, under “compound 0.316 µM”, the viability, T/C is 96.2% and 105% and 84.3%. The viability, T/C (compound 1 µM) is 68.3% and 92.9% and 61.6%. Moreover, the viability, T/C (compound 3.16 µM) was 57.1% and 82.2% and 48.8%. Besides, the viability, T/C (compound 10 µM) is 47% and 65.2% and 39.2%.
`C=CC(=O)N1CCN(c2nc(=O)n(-c3c(C)ccnc3C(C)C)c3nc(-c4c(O)cccc4F)c(F)cc23)C(C)C1` (stereo unspecified): the IC50 is over 10000 nM. For the same compound, the viability, T/C (compound 0.0316 µM) was 106% and 112% and 111%. Besides, the viability, T/C (compound 0.1 µM) is 94.1% and 102% and 90.6%. Where the note is “compound 0.316 µM”, the viability, T/C was 100% and 107% and 103%. For the same compound, the viability, T/C (compound 1 µM) was 102% and 110% and 106%. Also, the viability, T/C (compound 3.16 µM) is 107% (2×) and 108%. In addition, the viability, T/C (compound 10 µM) was 90.5% and 111% and 101%.
As for `CC(C)(O)C1CCC(Nc2ccc3ncc(-c4cccc(C(F)(F)F)c4)n3n2)CC1` (stereo unspecified), the IC50 was 734 nM and 803 nM and 519 nM. Besides, for the setting “compound 0.0316 µM”, the viability, T/C is 106% and 103% and 98.1%. The viability, T/C (compound 0.1 µM) is 94% and 102% and 87.3%. For the same compound, the viability, T/C (compound 0.316 µM) is 89% and 96.2% and 80.1%. Also, the viability, T/C (compound 1 µM) was 36.2% and 39.3% and 10.5%. Also, the viability, T/C (compound 3.16 µM) was 2.72% and 3.1% and 0.35%. Also, for the setting “compound 10 µM”, the viability, T/C is 2.99% and 3.23% and 0.57%.
In the case of `COc1ncnc(C2CC2)c1-c1ncc2cnn(Cc3ccc(-c4nc(C(F)(F)F)cn4C(C)C)cc3)c2n1`, the IC50 was over 10000 nM. Moreover, where the note is “compound 0.0316 µM”, the viability, T/C was 101% and 105% and 104%. The viability, T/C (compound 0.1 µM) was 92.3% and 102% and 96%. In addition, for the setting “compound 0.316 µM”, the viability, T/C was 101% and 105% and 104%. The viability, T/C (compound 1 µM) was 93.7% and 103% and 102%. Further, where the note is “compound 3.16 µM”, the viability, T/C is 104% and 99.2% and 97.6%. Besides, where the note is “compound 10 µM”, the viability, T/C was 102% and 105% and 103%.
As for `C=CCn1c(=O)c2cnc(Nc3ccc(N4CCN(C)CC4)cc3)nc2n1-c1cccc(C(C)(C)O)n1`, the IC50 is 1640 nM and 1800 nM and 945 nM. For the same compound, the viability, T/C (compound 0.0316 µM) was 102% and 105% and 106%. Moreover, the viability, T/C (compound 0.1 µM) is 99.4% and 100% and 96.3%. Under “compound 0.316 µM”, the viability, T/C is 95.1% and 97.1% and 97.4%. For the setting “compound 1 µM”, the viability, T/C was 66.4% and 72.8% and 47.7%. The viability, T/C (compound 3.16 µM) is 26.8% and 27.4% and 8.15%. For the same compound, the viability, T/C (compound 10 µM) is 28.5% and 27% and 10.6%.
`CC(=O)O[C@H]1C(=O)[C@@]2(C)[C@H]([C@H](OC(=O)c3ccccc3)[C@]3(O)C[C@H](OC(=O)[C@H](O)[C@@H](NC(=O)c4ccccc4)c4ccccc4)C(C)=C1C3(C)C)[C@]1(OC(C)=O)CO[C@@H]1C[C@@H]2O`: the IC50 is 34.2 nM and 68.2 nM and < 31.6 nM. The viability, T/C (compound 0.0316 µM) was 52.5% and 76.2% and 43.1%. Moreover, the viability, T/C (compound 0.1 µM) was 16.1% (2×) and 36.9%. Also, the viability, T/C (compound 0.316 µM) was 11.9% and 21.4% and 7.97%. Besides, for the setting “compound 1 µM”, the viability, T/C is 13.3% and 23.7% and 9.54%. Besides, the viability, T/C (compound 3.16 µM) is 12% and 23.8% and 9%. In addition, the viability, T/C (compound 10 µM) was 13.6% and 25.8% and 10.8%.
Consider `O=C(NO)c1cnc(N2CCN(S(=O)(=O)c3ccc4ccccc4c3)CC2)nc1`, for which the IC50 was 1490 nM and 1480 nM and 570 nM. Further, the viability, T/C (compound 0.0316 µM) was 112% and 103% and 107%. In addition, the viability, T/C (compound 0.1 µM) was 105% and 103% and 92.6%. The viability, T/C (compound 0.316 µM) is 104% and 103% and 82.3%. The viability, T/C (compound 1 µM) is 75.6% and 75% and 19.8%. Also, the viability, T/C (compound 3.16 µM) is 0.92% and 0.99% and 0.08%. Moreover, under “compound 10 µM”, the viability, T/C was 0.38% and 0.52% and 0.08%.

By viability, T/C is commonly meant the ratio of treated to control. As usually defined, the IC50 is the concentration that gives 50% inhibition.
